From patent publication US20100310543A1, “METHOD OF PREVENTING AND TREATING ACUTE BRAIN PATHOLOGIES” (UNIVERSITY OF ZURICH, priority 2007, published 2010)
Values joined by “and” are separate entries in the source; they are usually repeats but may differ in a detail not shown here. Equal entries are not always repeated. Where two headings read alike, the source gives them in different places.

Key:
[1] = tested on: acute hippocampal slices (area CA1); assay: f-EPSP recovery after transient OGD in acute hippocampal slices; assay type: cell-based, mouse; settings: for mean f-EPSP slope 80-90 min after the onset of OGD: 25 min OGD, % of pre-OGD baseline
Description: (§1) Adult mice were killed by cervical dislocation and the heads were immediately immersed in freshly prepared ice-cold artificial cerebrospinal fluid (aCSF: 119 mM NaCl, 11 mM D-glucose, 1.3 mM MgCl2.6H2O, 1.3 mM NaH2PO4, 2.5 mM KCl, 2.5 mM CaCl2, 26 mM NaHCO3, gassed with 95% O2/5% CO2 for a minimum of 20-min) for at least 3 min. Brains were quickly removed and hippocampi were extracted for electrophysiological recordings. Acute slices (400 μm thick) were prepared with a vibratome (Leica VT 1000S, Germany) in ice-cold oxygenated aCSF. Slices were transferred to an interface chamber at 34° C. for 40 to 50 min then kept at room temperature for at least 1-2 hours before recording. Recordings were performed in a submersion chamber (Slice Mini Chamber III/IV, Luigs & Neumann, Germany) continuously perfused with aCSF at approximately 1.1 ml/min. A monopolar electrode was placed in the stratum radiatum to activate Schaffer collaterals and test stimuli were applied at 0.033 Hz at an intensity set to evoke 1/3 of the maximum f-EPSP. Evoked f-EPSP were recorded in the stratum radiatum with a borosilicate micropipette filled with NaCl 3M or aCSF. The signal was amplified with an AXOPATCH 200B amplifier (Axon Instruments/Molecular Devices, Germany) and sampled using pCLAMP. Baseline responses were recorded for 10-min or until stable. For extracellular recordings in example 8, a monopolar electrode is placed in the Schaffer collateral fibers, and stimulation is applied at 0.033 Hz with stimulus intensity ranging from 20 to 80 μA, yielding evoked field EPSPs (fEPSPs) of […]. fEPSPs are recorded in the stratum radiatum using a borosilicate micropipette filled with aCSF.
For each electrophysiological experiment, the average slope of individual f-EPSP was measured from the initial 1-1.5 ms-portion following the fiber volley using Clampfit (Axon Instruments, Germany). For statistical analyses, the f-EPSP slope was averaged over 1-min and analyzed by three-way analysis of variance (ANOVA) using Statview 5.0 with sequences (10-min) and stimulation (1-min bins) as repeated measures. […] Infarct volume and DNA fragmentation were analyzed by two-tailed t-tests. Western blots were evaluated by one-way ANOVA followed by LSD post-hoc tests. Statistical significance was set at p=0.05, data are presented as mean±SEM.
Graded doses of OA were used to inhibit both PP1 and PP2A, or PP2A alone.

[2] = tested on: hippocampal slices (Schaffer collaterals/CA1); assay: LTD (f-EPSP slope) in hippocampal slices; assay type: cell-based, mouse; settings: 1 nM tautomycin, LTD without OGD
Description: as §1, with “1.1 ml/min. […] Evoked f-EPSP” for “1.1 ml/min. A monopolar electrode was placed in the stratum radiatum to activate Schaffer collaterals and test stimuli were applied at 0.033 Hz at an intensity set to evoke 1/3 of the maximum f-EPSP. Evoked f-EPSP”, “or aCSF. […] Baseline responses” for “or aCSF. The signal was amplified with an AXOPATCH 200B amplifier (Axon Instruments/Molecular Devices, Germany) and sampled using pCLAMP. Baseline responses”, “with aCSF. […]” for “with aCSF.”

PP2A = settings: literature ranges, cited from earlier work
PP1 [3] = settings: 1 nM tautomycin (submaximal dose); cited from earlier work
ERK1 = assay: Western blot of phosphorylated ERK1 in slices subjected to OGD; settings: control slices treated with tautomycin (3 nM) and subjected to OGD
Description: (§2) Acute slices (hippocampus, cortex and striatum) were exposed to 15 to 25-min of hypoxic/aglycemic conditions by perfusion with aCSF containing no glucose (replaced with equimolar sucrose) and gassed with N2/CO2 (95/5%) (Lobner and Lipton, 1993; Raley-Susman and Lipton, 1990). […] The OGD solution reached the recording chamber within 30 seconds and replaced the normoxic aCSF within 2-3 min.
(§3) Drugs for slice recordings were bath-applied for 2 hours before recording in oxygenated aCSF. Okadaic acid (Alexis Corporation, Switzerland) and tautomycin (Alexis Corporation and Sigma Aldrich, Switzerland) were dissolved in DMSO (30 mM) and methanol or ethanol (1 mM), respectively, and stock solutions were diluted further in aCSF the day of the experiment. The respective solvents were used for drug-control experiments. For both mutant and control slices, the aCSF was supplemented with doxycycline hydrochloride (Sigma, Buchs, Switzerland) at 8 ng/ml.
(§4) Tissue samples from the striatum ipsilateral and contralateral to MCAO or from acute forebrain slices (hippocampus, cortex and striatum) were homogenized in lysis buffer and centrifuged. Supernatants were resolved on SDS-PAGE and proteins were transferred onto PVDF membranes. […] The band intensity was determined by densitometry and corrected for protein loading using anti-β-actin antibody (A5316; Sigma) as an internal control.

ERK2 = assay: Western blot of phosphorylated ERK2 in slices subjected to OGD; settings: control slices treated with tautomycin (3 nM) and subjected to OGD
Description: as §2, §3, §4

JNK1 = assay: Western blot of phosphorylated JNK1 in slices subjected to OGD; settings: PP1 inhibition (tautomycin) or OGD in vitro
Description: as §2, §3, §4

JNK2 = assay: Western blot of phosphorylated JNK2 in slices subjected to OGD; settings: PP1 inhibition (tautomycin) in vitro
Description: as §2, §3, §4

PP1 [4] = settings: literature ranges, cited from earlier work
hippocampal slices = settings: 1 μM OA; cited from earlier work

Structure (SMILES) | mean f-EPSP slope 80-90 min after the onset of OGD ([1]; 1 nM drug) | f-EPSP slope after LTD+OGD, % of baseline 90 min after LTD induction ([1]; 1 nM tautomycin, I-1* mutant slices, LTD 10 min prior to OGD) | mean f-EPSP slope 80-90 min after the onset of OGD ([1]; 3 nM drug) | mean f-EPSP slope 80-90 min after the onset of OGD ([1]; 10 nM drug) | mean f-EPSP slope 80-90 min after the onset of OGD ([1]; 100 nM drug) | f-EPSP slope after LTD, % of baseline at 90 min ([2]; I-1* mutant slices) | f-EPSP slope after LTD, % of baseline at 90 min ([2]; control slices) | IC50 (PP2A) | PP1 inhibition (PP1 [3]) | increase in phosphorylated ERK1 (ERK1) | increase in phosphorylated ERK2 (ERK2) | JNK1 phosphorylation (JNK1) | phosphorylated JNK2 (JNK2) | mean f-EPSP slope 80-90 min after the onset of OGD ([1]; 0.1 nM drug) | mean f-EPSP slope 80-90 min after the onset of OGD ([1]; 1 μM drug) | IC50 (PP1 [4]) | IC50 (PP1 [4]; listed as okadaic acid) | IC50 (PP2A; listed as okadaic acid) | effect on LTP induced by a single 1-sec train at 100 Hz (hippocampal slices)
CO[C@H]([C@H](O)CC(=O)[C@@H](C)[C@@H](O)CC[C@@H](C)[C@@H]1O[C@]2(CC[C@@H](C)[C@H](CC[C@H](C)C(C)=O)O2)CC[C@@H]1C)[C@H](OC(=O)C[C@@H](O)C1=C(C)C(=O)OC1=O)C(C)C [tautomycin] | 88.6±1.5% | 37.0±10.8% | 31.4±4.6% | 4.4±2.9% | 0.9±1.3% | 96.3±3.6% | 85.2±3.0% | 10 to 23 nM and 10 to 20 nM | about 30% | +366.8±48.6% | +404.1±28.5% | not altered | did not increase | – | – | – | – | – | –
C=C1[C@@H](O)[C@@H]2O[C@]3(CC[C@H](/C=C/[C@@H](C)[C@@H]4CC(C)=C[C@@]5(O[C@H](C[C@@](C)(O)C(=O)O)CC[C@H]5O)O4)O3)CC[C@H]2O[C@@H]1[C@@H](O)C[C@H](C)[C@H]1O[C@@]2(CCCCO2)CC[C@H]1C [OA, okadaic acid] | 86.8±5.2% | – | – | 56.6±23.9% | 43.5±16.6% and 43.1±15.6% | – | – | 0.1 to 1 nM | – | – | – | – | – | 76.6±20.5% | 20.2±13.9% and 20.3±14.4% | 20 to 100 nM | 10 to 1300 nM | 0.02 to 1 nM | blocked
